Test results reported in patent US20230102836A1, “Amoebicidal Compositions for Contact Lens Solutions” (University of the West of Scotland, priority 2019, published 2023).
Several values for one entry are separate records, joined by “and”; a condition that tells them apart may be missing. Equal entries are not always repeated. Where two headings read alike, the source gives them in different places.

Key:
Assay type in all cases: cell-based, Acanthamoeba castellanii ATCC 50370
A. castellanii cysts [1] = experiment: Cytotoxicity assay on cysts (trypan blue); conditions: Acanthamoeba castellanii
Procedure: Acanthamoeba castellanii ATCC 50370 trophozoites and cysts were cultured in Peptone Glucose (PG) medium and encystment medium (Chagla A H, Griffiths A J (1974) Microbiology: 85(1): 139-145) respectively at 25° C. Cysts were prepared by incubating trophozoites for 8 days in encystment medium and integrity validated with calcofluor (0.25 μg/ml) assay (Gatti S et al (2010) J. Med. Microbiol.; 59: 1324-1330) or sodium dodecyl sulfate (SDS, 0.5% w/v) disintegration assay (Dudley R et al (2005) Acta Trop.; 9: 100-8) and microscopic observation.
The compounds used in this study all contained alkyl-carbon chains: three APCs [dodecyl-PC (APC12), tetradecyl-PC. (APC14) and hexadecyl-PC (APC16)] (Anatrace) and four QACs [docdecyl-TMAB (QAC12), tetradecyl-TMAB (QAC14), hexadecyl-TMAB (QAC16) and octadecyl-TMAB (QAC18)](Sigma). All were prepared to a stock concentration of 1 mg/ml and diluted as required by the experimental protocol in the cytotoxicity assays. A. castellanii trophozoites and cysts (at 10^5 cells/ml) with or without APCs or QACs (concentrations ranging from […] doubly diluted to 0.04 μg/ml to a final volume of 100 μl) in a 96-well plate were incubated at 25° C. for a duration determined by the experimental protocol.
(§1) For the combined assay, similar concentrations of QAC18 and APC16 were prepared and 18.75 μg/ml and 37.5 μg/ml of QAC12 added (to a final volume of 100 μl) were added to 10^5 cells/mi in a 96-well plate and later incubated at 25° C. for a duration determined by the experimental protocol. Resazurin (7-Hydroxy-31-phenoxazin-3-one 10-oxide; 5 mg/ml; McBride J et al (2005) J. Clin. Microbiol.; 43: 629-634) and trypan blue (0.4 μg/ml; Mafra C S P et al (2013) Investig. Ophthalmol. Vis. Si.; 54: 6363-6372) were then added to trophozoites and cysts respectively after being exposed to the compounds and the cell viability estimated microscopically and from changes in absorbance (at 595 nm and 570 nm) respectively.
Efficacy was expressed as a percentage of untreated controls for each drug concentration used and the data used to calculate the IC50. Cell density was estimated using the modified Neubaur hemocytometer and expressed as cells/ml.

A. castellanii cysts [2] = experiment: Drug wash-out / alamarBlue-reversion assay, cysts; conditions: for Back transformation to trophozoites after drug wash-out: Cysts; for Back transformation to trophozoites after drug wash-out: key: +: indicates cells reverting back to trophozoites after washout; and capable of oxidizing reduced alamarBlue from blue to pink after 8 days; −: indicates cell that did not revert to trophozoites after wash-out and unable to oxidise reduced alamarBlue solution
Procedure: For the drug kinetic assay, viability was assessed by the linked alamarBlue-reversion assay. Drug-treated cysts were washed with PBS and fresh PG medium was added to allow reversion to trophozoites for 5 days, after which, alamar blue was added and viability estimated as described above.
The cysticidal activity of QAC16 to QAC18 strongly correlated with (a) the alkyl-carbon chain lengths (Table 2) and the duration of drug contact (FIG. 8H). Like trophozoites, death was via leakage judged by 40% and 50% increase in DNA and proteins in the external milieu after 1 h (FIGS. 9A and 9B). To investigate if the cyst were viable, a complementary viability assay that involved, drug washout, incubation in PG medium to allow reversion of viable cyst to trophozoite for 7 days, and estimation of viability using the oxidation of resazurin after 6 h.

[3] = tested on: A. castellanii trophozoites; experiment: Morphometric analysis of trophozoites
Procedure: Acanthamoeba trophozoites ([…]) incubated without (FIG. 2A), with QAC18 at 37.5 μg/ml for 1 h at 25° C. (FIG. 2B), and 0.5% SDS for 30 min (FIG. 2C). QAC18 reduced trophozoites sizes from 29.02±0.23 (FIG. 2A) to 7.87 f 0.93 (FIG. 2B) which disintegrated after 30 min treatment with SDS (FIG. 2C).
A. castellanii trophozoites incubated with and without QAC for a duration determined by experimental protocol were examined microscopically and their sizes measured using the Open Laboratory (Improvision) calibration graticule. The mean body sizes were determined.

[4] = tested on: A. castellanii trophozoites; experiment: Combined assay with fixed QAC12 (alamarBlue); conditions: Acanthamoeba castellanii, 96 h, 96 h at 25° C.
Procedure: Acanthamoeba trophozoites (10^5 cells/ml. n=5/treatment) treated with 100 μg/ml doubly diluted to 0.06 μg/ml of QAC18 (a,b) or APC16 (c,d) for 96 h at 25° C. […] Similarly. APC16 alone at the same concentration (closed circle, FIG. 6C, FIG. 6D) in combination with QAC12 at 18.75 μg/ml (open squares, d) QAC12 at […] (open squares, FIG. 6C). Data are mean absorbance at 595 nm t SD; n=4 independent experiments performed in triplicates. IC50s were not statistically significant between QAC12 at both concentrations and QAC16 (p>0.05, FIG. 6A, FIG. 6B) but significant with APC16 (p<0.05, FIG. 6C, FIG. 6D).
as §1

For `CCCCCCCCCCCCCCCCCC[N+](C)(C)C.[Br-]` [QAC18, octadecyltrimethyl ammonium bromide], the IC50 (A. castellanii cysts [1]; Table 2, read-out: IC50 A. castellanii cysts) was 15 µg/mL and 38 µM, the IC50 (A. castellanii cysts [1]; after 96 h, trypan blue viability assay, read-out: Estimated IC50 against matured cysts) was 22 ± 0.04 µg/mL and the “Resurgence of cysts after drug washout” value (A. castellanii cysts [2]; 18.75 μg/ml after 48 h) was “No resurgence”. The “Resurgence of cysts after drug washout” value (A. castellanii cysts [2]; 37.5 μg/ml after 24 h) was “No resurgence”, the “Back transformation to trophozoites after drug wash-out” value (from here on “Back transformation to trophozoites”) (A. castellanii cysts [2]; 9.375 μg/ml, 24 h) was “+” and the “Back transformation to trophozoites” value (A. castellanii cysts [2]; 9.375 μg/ml, 48 h) was “+”. For the same compound, the “Back transformation to trophozoites” value (A. castellanii cysts [2]; 9.375 μg/ml, 72 h) was “+”, the “Back transformation to trophozoites” value (A. castellanii cysts [2]; 18.75 μg/ml, 24 h) was “+” and the “Back transformation to trophozoites” value (A. castellanii cysts [2]; 18.75 μg/ml, 48 h) was “+”. For the same compound, the “Back transformation to trophozoites” value (A. castellanii cysts [2]; 18.75 μg/ml, 72 h) was “+”, the “Back transformation to trophozoites” value (A. castellanii cysts [2]; 37.50 μg/ml, 24 h) was “−” and the “Back transformation to trophozoites” value (A. castellanii cysts [2]; 37.50 μg/ml, 48 h) was “−”. The “Back transformation to trophozoites” value (A. castellanii cysts [2]; 37.50 μg/ml, 72 h) was “−”, the “Reduction in trophozoite size relative to untreated” value [3] was 4 fold and the “Trophozoite size after treatment” value ([3]; 37.5 μg/ml for 1 h at 25° C. (FIG. 2B)) was 7.87. For the same compound, the “Trophozoite size after treatment” value ([3]; QAC18-treated trophozoites (FIG. 2B)) was 7.87±0.93 μm, the IC50 ([4]; QAC12 fixed at 18.75 μg/ml, read-out: Estimated IC50 of QAC18 in combination with QAC12) was 6.7 µg/mL and the IC50 ([4]; QAC12 fixed at 37.5 μg/ml, read-out: Estimated IC50 of QAC18 in combination with QAC12) was 6.9 µg/mL. It also gave an IC50 ([4]; without QAC12, read-out: Estimated IC50 of QAC18 alone) of 6.1 µg/mL.
